Reference: patent EP4768489A1, “CYCLOBUTYL-CONTAINING COMPOUNDS” (Chia Tai Tianqing Pharmaceutical Group Co., Ltd., priority 2023, dated 2025)
Substitutions are numbered along the chain they refer to.

What was measured:
[1] = target: T1, AR in MDA-PCA-2B (L702H\T878A) cells (Homo sapiens, UniProt P10275, L702H/T878A); assay: Assay on degradation activity for AR in MDA-PCA-2B (L702H\T878A) cells (HTRF); format: cell-based; conditions: 24 h; for DC50: AR degradation; for Dmax: maximum degradation rate
T1 construct: Assay on degradation activity for AR in MDA-PCA-2B (L702H\T878A) cells; endogenous in cells; host or cells: MDA-PCA-2B cells
T1 sequence (P10275 1-920 L702H/T878A): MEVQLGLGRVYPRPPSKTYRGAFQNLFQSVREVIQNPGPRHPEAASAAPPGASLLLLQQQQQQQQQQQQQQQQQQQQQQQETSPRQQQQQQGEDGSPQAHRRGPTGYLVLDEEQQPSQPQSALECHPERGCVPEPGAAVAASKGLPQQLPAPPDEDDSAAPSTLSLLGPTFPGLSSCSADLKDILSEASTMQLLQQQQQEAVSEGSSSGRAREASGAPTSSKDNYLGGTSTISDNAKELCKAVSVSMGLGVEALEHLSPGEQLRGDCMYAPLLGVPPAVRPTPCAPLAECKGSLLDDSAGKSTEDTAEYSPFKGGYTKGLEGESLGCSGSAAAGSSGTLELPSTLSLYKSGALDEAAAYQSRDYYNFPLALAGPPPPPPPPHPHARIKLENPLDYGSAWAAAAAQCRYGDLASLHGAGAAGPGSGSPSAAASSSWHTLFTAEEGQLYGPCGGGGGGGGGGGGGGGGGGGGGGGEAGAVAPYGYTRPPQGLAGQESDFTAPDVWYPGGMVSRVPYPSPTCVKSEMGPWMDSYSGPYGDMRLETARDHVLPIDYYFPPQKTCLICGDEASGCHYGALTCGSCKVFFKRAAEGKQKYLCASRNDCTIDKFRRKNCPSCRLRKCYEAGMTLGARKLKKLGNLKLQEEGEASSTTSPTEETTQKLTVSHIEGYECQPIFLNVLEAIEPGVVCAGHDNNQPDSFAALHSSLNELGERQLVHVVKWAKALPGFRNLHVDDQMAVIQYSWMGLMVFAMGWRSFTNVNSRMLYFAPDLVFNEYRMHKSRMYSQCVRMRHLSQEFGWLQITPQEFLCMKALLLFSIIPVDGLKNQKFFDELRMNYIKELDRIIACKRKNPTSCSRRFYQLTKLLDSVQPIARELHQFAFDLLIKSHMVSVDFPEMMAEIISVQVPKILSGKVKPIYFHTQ
Procedure: (§1) The detection was carried out using the HTRF HUMAN ANDROGEN RECEPTOR DETECTION KIT (cisbio, 64ANDRPEG), 4× Supplemented Lysis buffer was prepared using the Blocking reagent stock solution (100×) and Lysis buffer stock solution (4×), and 1× Supplemented Lysis buffer was prepared using the 4× Supplemented Lysis buffer and ddH2O. Premixed antibody solutions were prepared using Detection buffer, Androgen Receptor Eu Cryptate antibody, and Androgen Receptor d2 antibody.
The cells were cultured overnight in a cell incubator. […] After the cells were oscillated for 40 min at room temperature, 16 µL of the cell lysis buffer was added to a 384-well plate, the Premixed antibody solutions were added at 4 µL/well, and the mixture was left to stand at 25 °C for 2 h. […]

[2] = In vitro liver microsome stability, human; format: in vitro ADME; conditions: human liver microsomes 0.5 mg/mL, 37 °C, NADPH
Procedure: (§2) Liver microsome incubation samples were prepared by mixing a PBS buffer (pH 7.4), a liver microsome solution (0.5 mg/mL), a test compound, and an NADPH + MgCl2 solution, followed by incubation at 37 °C and 300 rpm for 1 h. Zero-hour samples were prepared by mixing a PBS buffer (pH 7.4), a liver microsome solution (0.5 mg/mL), and a test compound. […]

AR in VCaP cells = target: T2, AR in VCaP cells (Homo sapiens, UniProt P10275); assay: Assay on degradation activity for AR in VCaP cells (HTRF human androgen receptor detection kit); format: cell-based; conditions: 24 h; for DC50: AR degradation; for Dmax: maximum degradation rate
T2 construct: Assay on degradation activity for AR in VCaP cells; endogenous in cells; host or cells: VCaP cells
T2 sequence (P10275 1-920): T1 sequence (P10275 1-920 L702H/T878A) with H702L, A878T
Procedure: as §1
(§3) The cells were cultured overnight in a cell incubator. […] After the cells were oscillated for 40 min at room temperature, 16 µL of the cell lysis buffer was added to a 384-well plate, the Premixed antibody solutions were added at 4 µL/well, and the mixture was left to stand at 25 °C for 2 h. […] Table 1. Degradation activity of compounds for AR in VCaP cells

VCaP cells = assay: Assay on inhibitory activity for VCaP cell proliferation (CCK-8); format: cell-based; conditions: Homo sapiens, 168 h
[3] = In vitro liver microsome stability, mouse; format: in vitro ADME; conditions: mouse liver microsomes 0.5 mg/mL, 37 °C, NADPH
Procedure: as §2

in vivo = conditions: mouse
Procedure: (§4) ICR mice weighing 18-22 g were randomized into groups of 9 after 3-5 days of acclimatization. The mice in the intragastric administration group were intragastrically given the test compound solution at a dose of 10 mg/kg (20 mg/kg or 30 mg/kg), and the mice in the intravenous injection administration group were intravenously injected with the test compound solution at a dose of 1 mg/kg.
(§5) Blood was collected from the orbit to prepare plasma samples to be tested.
(§6) 30 µL of each of the plasma samples to be tested and a standard curve sample were taken, and an acetonitrile solution containing an internal standard was added. Supernatants were obtained by protein precipitation, diluted with a 1:1 (v:v) mixed solution of acetonitrile and water, and then assayed by LC/MS/MS. Data were fitted using a non-compartmental model.

Mouse pharmacokinetics = conditions: for F: Mouse i.g. (0-48 h), 10 mpk vs i.v. 1 mpk
Procedure: as §4, §5, §6

[4] = target: T3, AR in LNCaP (T878A) cells (Homo sapiens, UniProt P10275, T878A); assay: Assay on degradation activity for AR in LNCaP (T878A) cells (HTRF); format: cell-based; conditions: maximum degradation rate, 24 h
T3 construct: Assay on degradation activity for AR in LNCaP (T878A) cells; endogenous in cells; host or cells: LNCaP cells
T3 sequence (P10275 1-920 T878A): T1 sequence (P10275 1-920 L702H/T878A) with H702L
Procedure: as §1
as §3, with “2.” for “1.”, “LNCaP (T878A)” for “VCaP”

LNCaP (T878A) cells = assay: cells; conditions: Homo sapiens, 168 h
Procedure: LNCaP cells in a good growth state were taken, washed with PBS, and digested with pancreatin, and a phenol red-free 1640 complete medium containing 2% CSS-FBS was added to terminate the digestion. The cells were collected into a centrifuge tube, adjusted to a cell density of 1 × 10^5 cells/mL, and seeded in a 96-well plate (100 µL/well). Meanwhile, compounds were added using a nanoliter pipettor and subjected to a 2-fold gradient dilution such that the final concentrations of the compounds were 1000 nM-0.061 nM and 5000 nM-0.305 nM. 2 duplicate wells were set, and meanwhile, a control was set. After the cells were cultured in the cell incubator for another 168 h, the detection reagent CCK-8 (manufacturer: Dojindo, 10 µL/well) was added. After 2.0 h of incubation in the cell incubator, absorbance values at 450 nm were measured using a PerkinElmer Envision microplate reader, the four-parameter analysis was performed, the dose-response curves were fit, and IC50 was calculated.

[5] = ICR, mouse, plasma, iv, 1 mg/kg
[6] = ICR, mouse, plasma, po, 10 mg/kg

| Compound | DC50 [1] | Dmax [1] | HLM (human) Remaining amount at 60 min % [2] | DC50 (AR in VCaP cells) | Dmax (AR in VCaP cells) | IC50 (VCaP cells) | MLM (mouse) Remaining amount at 60 min % [3] | F (Mouse pharmacokinetics) | further results |
| --- | --- | --- | --- | --- | --- | --- | --- | --- | --- |
| COc1cc(O[C@H]2C(C)(C)[C@H](NC(=O)c3ccc(N4CCC(CN5Cc6ccc7c(C8CCC(=O)NC8=O)noc7c6C5)CC4)nc3)C2(C)C)ccc1C#N (stereo partly shown) [Compound 11] | < 500 nM | > 70% | >70% | < 5 nM | > 75% | < 2000 nM | >70% | – | – |
| COc1cc(O[C@H]2C(C)(C)[C@H](NC(=O)c3ccc(N4CCC(CN5CCc6ccc7c(C8CCC(=O)NC8=O)noc7c6CC5)CC4)cc3)C2(C)C)ccc1C#N (stereo partly shown) [Compound 10] | < 500 nM | > 70% | >70% | < 5 nM | > 75% | < 2000 nM | >70% | 30.00% | AUC at 48 h (in vivo; iv, 1 mg/kg): 5400 ng·h/mL; Vd (in vivo; iv, 1 mg/kg): 3.1 L/kg; clearance (in vivo; iv, 1 mg/kg): 2.83 mL/min/kg; half-life (in vivo; iv, 1 mg/kg): 13 h; AUC at 48 h (in vivo; po, 10 mg/kg): 16200 ng·h/mL; Cmax (in vivo; po, 10 mg/kg): 620 ng/mL; half-life (in vivo; po, 10 mg/kg): 11 h |
| COc1cc(O[C@H]2C(C)(C)[C@H](NC(=O)c3ccc(N4CCC(CN5CCc6c(ccc7c(C8CCC(=O)NC8=O)noc67)C5)CC4)cn3)C2(C)C)ccc1C#N (stereo partly shown) [Compound 2] | – | – | >70% | – | – | < 2000 nM | >70% | – | Dmax [4]: > 90%; IC50 (LNCaP (T878A) cells): < 50 nM |
| COc1cc(O[C@H]2C(C)(C)[C@H](NC(=O)c3ccc(N4CCC(CN5CCc6ccc7c(C8CCC(=O)NC8=O)noc7c6CC5)CC4)nc3)C2(C)C)ccc1C#N (stereo partly shown) [Compound 13] | < 500 nM | > 70% | – | < 5 nM | > 75% | < 2000 nM | >70% | 41.00% | AUC (Mouse pharmacokinetics; [5]): 6810 ng·h/mL; Vd (Mouse pharmacokinetics; [5]): 2 L/kg; clearance (Mouse pharmacokinetics; [5]): 2.33 mL/min/kg; half-life (Mouse pharmacokinetics; [5]): 9.7 h; AUC (Mouse pharmacokinetics; [6]): 28000 ng·h/mL; Cmax (Mouse pharmacokinetics; [6]): 1390 ng/mL; half-life (Mouse pharmacokinetics; [6]): 8.3 h |
| COc1cc(O[C@H]2C(C)(C)[C@H](NC(=O)c3ccc(N4CCC(CN5CCc6ccc7c(C8CCC(=O)NC8=O)noc7c6C5)CC4)nc3)C2(C)C)ccc1C#N (stereo partly shown) [Compound 12] | < 500 nM | > 70% | >70% | – | – | – | – | – | – |
| COc1cc(O[C@H]2C(C)(C)[C@H](NC(=O)c3ccc(N4CCC(CN5Cc6ccc7c(C8CCC(=O)NC8=O)noc7c6C5)CC4)cc3)C2(C)C)ccc1C#N (stereo partly shown) [Compound 8] | < 500 nM | > 70% | >70% | < 5 nM | > 75% | – | >70% | 37.00% | AUC at 48 h (in vivo; iv, 1 mg/kg): 20200 ng·h/mL; Vd (in vivo; iv, 1 mg/kg): 1.1 L/kg; clearance (in vivo; iv, 1 mg/kg): 0.7 mL/min/kg; half-life (in vivo; iv, 1 mg/kg): 18 h; AUC at 48 h (in vivo; po, 10 mg/kg): 77600 ng·h/mL; Cmax (in vivo; po, 10 mg/kg): 2810 ng/mL; half-life (in vivo; po, 10 mg/kg): 15 h |
| COc1cc(O[C@H]2C(C)(C)[C@H](NC(=O)c3ccc(N4CCC(CN5CCc6ccc7c(C8CCC(=O)NC8=O)noc7c6C5)CC4)cc3)C2(C)C)ccc1C#N (stereo partly shown) [Compound 9] | < 500 nM | > 70% | >70% | – | – | – | – | – | – |
